Experiments:
Type in all cases: cell-based, rat
BMP-2 gene = BMP-2 gene expression (RT-PCR); conditions: for BMP-2 mRNA level, dependence on concentration: 0.3, 1, 3, 10 μM, FIG. 9A; for BMP-2 mRNA level, dependence on treatment time: 1, 3, 6, 12 hrs, FIG. 9B
Description: (§1) Rat primary osteoblast was isolated from the parietal bone of gestation day 18 embryos of Sprague-Dawley rats. After being slaughtered, the embryo rats were obtained from the uteruses of the rats, and calvarium was isolated from the embryo rats. Parietal bone was cut from the calvarium and digested by 0.1% collagenase for 20 minutes to release the bone cells from the bone tissue. The digestion step was repeated five times. The collected bone cells were cultured in α-MEM containing 1% penicillin-streptomycin and 10% FBS in a humidified atmosphere of 5 percent carbon dioxide. When cells were attached and confluence, they were sub-cultured, which was called “passage 2 (P2)”. The passage was for analogizing. 2 to 5 passage cells were used for the experiments.
Bone cells were cultured in 6-well Plate and cultured with 0.3, 1, 3, and 10 μM of imperatorin and bergapten for 1, 3, 6, and 12 hrs, respectively. After treatment, the cells were lysed with TRIzol reagent at room temperature for 5 minutes, and then collected in a centrifuge tube. 0.5 ml of chloroform was added to the centrifuge tube. After the addition of chloroform, the centrifuge tube was well mixed, and centrifuged at 14000×g for 15 minutes at room temperature to obtain a supernatant. The supernatant was mixed with isopropanol (0.25 ml) and then centrifuged at 14000×g at room temperature for 15 minutes to obtain a precipitated RNA. RNA was washed with 75% alcohol, centrifuged at 14000×g for 10 minutes, and dried to give a RNA pellet. The RNA pellet was dissolved in diethyl pyrocarbonate (DEPC) solution and then quantitated by measurement of OD260/280. BMP-2 gene expression (BMP-2 mRNA level) was detected by RT-PCR using Supperscript™ III reverstranscriptase and […] (Applied Biosystems). The BMP-2 mRNA level in the control group which was treated with 0.1% DMSO was defined as 100%.

Bone cells [1] = assay: ALP activity of bone cells; conditions: for ALP activity of the bone cells: 0.3, 1, 3, 10 μM, FIG. 8A
From the text: Rat primary osteoblast was isolated from the parietal bone of gestation day 18 embryos of Sprague-Dawley rats. After being slaughtered, the embryo rats were obtained from the uteruses of the rats, and calvarium was isolated from the embryo rats. […] The digestion step was repeated five times. […] When cells were attached and confluence, they were sub-cultured, which was called “passage 2 (P2)”. The passage was for analogizing. 2 to 5 passage cells were used for the experiments. Bone cells were treated with 0.3, 1, 3, and 10 μM of imperatorin and bergapten, respectively. After treatment, the osteoblast cells were digested in 0.2% NP-40 solution, and then centrifuged at 1500 g for 5 minutes. The ALP activity of the osteoblast cells was tested using an ALP kit (Roche Applied Science). […] Referring to FIG. 8A, imperatorin and bergapten both increased the ALP activity of the bone cells.

Bone cells [2] = assay: Collagen secretion in bone cells; conditions: for collagen secretion in the bone cells: 0.3, 1, 3, 10 μM, FIG. 8B; for increase of collagen content / collagen synthesis: 'at least' figure
Description: as §1
Bone cells were treated with 0.3, 1, 3, and 10 μM of imperatorin and bergapten, respectively. After treatment, the cells were lysed in 6N HCl at 116° C. for 16 hrs, and dried in a vacuum. The resultant residue was dissolved in an equal volume of water, and then absorbance was measured at […]. The collagen secretion in the control group which was treated with 0.1% DMSO was defined as 100%. Referring to FIG. 8B, imperatorin and bergapten both increased the collagen secretion in the bone cells

SMADs = assay: Phosphorylation of SMADs (western blot); conditions: 10 μM, 1, 3, 6, 12, 24 hrs; FIG. 10
Description: as §1
(§2) Bone cells was cultured in 6-well plate and treated with 10 μM of imperatorin and bergapten for 1, 3, 6, 12, and 24 hrs, respectively. […] Following incubation with the secondary antibody, the membrane was washed three times with PBST, and detected by an […] chemiluminescence using an ECL blotting substrate according to the manufacturer's instructions. […]

EPK protein = assay: Phosphorylation of EPK protein (western blot); conditions: 10 μM, 1, 3, 6, 12, 24 hrs; FIG. 10
Description: as §1, §2

Bone cells [3] = assay: Mineralization in bone cells (Alizarin red-S); conditions: for mineralization of bone cells: 0.3, 1, 3, 10 μM, 14 days, differentiation medium, FIGS. 8C-8D; for increase of mineralization: 'at least' figure
Description: as §1
Bone cells were cultured in 96-well Plate containing a differentiation medium (50 μg/ml vitamin C and 10 mM β-glycerophosphate) and treated with 0.3, 1, 3, and 10 μM of imperatorin and bergapten, respectively. The differentiation medium was refreshed every 3 days. 14 days after the cell culture, the bone cells were fixed with 75% ethanol for 30 minutes, and then treated with 40 mM Alizarin red-S at room temperature for 1 hr. After the addition of Alizarin red-S, 10% cetylpyridinium chloride was added, and then absorbance was measured at […]. The mineralization level in the control group which was treated with 0.1% DMSO was defined as 100%. Referring to FIGS. 8C-8D, imperatorin and bergapten both increased the mineralization of bone cells.

SMILES: CC(C)=CCOc1c2occc2cc2ccc(=O)oc12 [imperatorin]
- BMP-2 mRNA level, dependence on concentration (BMP-2 gene): increased according to the increase of the concentration
- BMP-2 mRNA level, dependence on treatment time (BMP-2 gene): increased according to the increase of the treatment time
- ALP activity of the bone cells (Bone cells [1]): increased
- increase of alkaline phosphatase (ALP) activity (Bone cells [1]; 'at least' figure): ≥ 6.0%
- increase of alkaline phosphatase (ALP) activity (Bone cells [1]; 'preferably ... at least' figure): at least 95%
- collagen secretion in the bone cells (Bone cells [2]): increased
- increase of collagen content / collagen synthesis (Bone cells [2]): at least 102.0%
- phosphorylation of SMADs (SMADs): induced
- phosphorylation of EPK protein (EPK protein): induced
- mineralization of bone cells (Bone cells [3]): increased
- increase of mineralization (Bone cells [3]): ≥ 110.0%

SMILES: COc1c2ccoc2cc2oc(=O)ccc12 [bergapten]
- BMP-2 mRNA level, dependence on concentration (BMP-2 gene): increased according to the increase of the concentration
- BMP-2 mRNA level, dependence on treatment time (BMP-2 gene): increased according to the increase of the treatment time
- ALP activity of the bone cells (Bone cells [1]): increased
- increase of alkaline phosphatase (ALP) activity (Bone cells [1]; 'at least' figure): ≥ 80.0%
- collagen secretion in the bone cells (Bone cells [2]): increased
- increase of collagen content / collagen synthesis (Bone cells [2]): at least 100%
- phosphorylation of SMADs (SMADs): induced
- phosphorylation of EPK protein (EPK protein): induced
- mineralization of bone cells (Bone cells [3]): increased
- increase of mineralization (Bone cells [3]): ≥ 105.0%
